Reference: US12312359B2 (Vitae Pharmaceuticals, LLC, priority 2016, dated 2025)

Tests used:
[1] = target: T1, biotinylated wild-type menin and MLL-AF9 fusion protein (menin/MLL binding) (Homo sapiens, UniProt O00255); assay: Assay 1: menin/MLL binding AlphaLISA assay, wild-type menin; conditions: Table 30; column head does not say wild-type or mutated menin
T1 construct: made in house; host or cells: menin: E. coli; MLL-AF9-FLAG: HEK293 cells, used as cleared lysate
T1 sequence (O00255 1-610): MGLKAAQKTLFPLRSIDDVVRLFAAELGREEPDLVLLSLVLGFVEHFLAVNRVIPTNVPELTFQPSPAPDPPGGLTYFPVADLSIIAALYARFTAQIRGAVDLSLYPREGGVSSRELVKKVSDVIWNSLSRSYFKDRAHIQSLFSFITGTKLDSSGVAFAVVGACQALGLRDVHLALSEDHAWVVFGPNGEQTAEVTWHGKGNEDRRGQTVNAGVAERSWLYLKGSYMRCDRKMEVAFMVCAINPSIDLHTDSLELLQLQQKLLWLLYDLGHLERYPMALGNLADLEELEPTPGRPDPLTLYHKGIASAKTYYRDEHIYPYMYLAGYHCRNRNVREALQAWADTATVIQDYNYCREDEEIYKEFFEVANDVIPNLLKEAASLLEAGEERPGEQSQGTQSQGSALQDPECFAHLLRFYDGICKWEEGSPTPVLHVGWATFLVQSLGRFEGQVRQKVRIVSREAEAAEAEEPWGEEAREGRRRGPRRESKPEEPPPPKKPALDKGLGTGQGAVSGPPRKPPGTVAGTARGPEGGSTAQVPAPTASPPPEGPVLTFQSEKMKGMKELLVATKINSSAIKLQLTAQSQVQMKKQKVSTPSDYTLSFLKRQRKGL
Experimental: Potencies of inhibitor compounds against menin/MLL binding were assessed by AlphaLISA assay using biotinylated (1) wild-type menin or (2) mutated menin (described in Huang et al, 2012, Nature, 482, 542-546) and MLL-AF9 fusion protein bearing a FLAG epitope at its C-terminus. Menin proteins were expressed in E. coli and covalently modified with biotin using EZ-Link™ Sulfo-NHS-Biotin (ThermoFisher Cat.No. 21217) according to manufacturer's protocol. MLL1-1,396 fused to AF91-92 and the C-terminal FLAG peptide was expressed in HEK293 cells and used as a lysate cleared at 21,000×g for 10 min.
Compounds (2 μL of solutions in DMSO) were dispensed in white 96-well half-area plates (Corning Cat.No. 3693) and incubated for 30 min at RT with 5 nM biotinylated menin and appropriate amount of MLL-AF9-FLAG lysate in 40 μL of 50 mM Tris-HCl buffer pH 7.4 containing 5% (v/v) DMSO, 50 mM NaCl, 0.01% (w/v) bovine serum albumin (BSA) and 1 mM DTT. To this incubation mixture, 40 μL of AlphaLISA anti-FLAG acceptor (PerkinElmer Cat.No. AL112C) and streptavidin donor (PerkinElmer Cat.No. 6760002) beads (10 μg/mL each) was added and incubation continued at RT for 60 min. Alpha (amplified luminescent proximity homogeneous assay) signal was measured on an Envision multi-label plate reader at the end of the incubation. All steps were conducted under dim fluorescent light.
These percent inhibition values were regressed against compound concentrations in the assay using four parameter logit non-linear curve fitting (XLFit, IDBS). The IC50 values were derived from the curve fitting as inflection points on the dose-response curves and are set out in Table 30 below.

[2] = system: human acute monocytic leukemia cell line MV-4-11; assay: Assay 2: cell proliferation assay (ATP quantitation, CellTiter-Glo), MV-4-11; assay type: cell-based; conditions: Homo sapiens, MV4-11, 72 h, MV-4-11 cells
Experimental: Potencies of inhibitor compounds against cell proliferation was assessed against the human acute monocytic leukemia cell line MV-4-11 (ATCC® CRL-9591™) based on ATP quantitation. MV-4-11 cells or toxicity control HL-60 cells (ATCC® CCL-240™) were incubated in 96-well tissue culture plates (1.67×10^4 cells in 200 μL culture media containing 10% FBS per well) with or without test compound for 72 h at 37° C., 5% CO2. After incubation, each well was mixed by pipetting and 95 μL from each well was transferred to a well in 96-well black OptiPlate® plates (PerkinElmer). An equal volume of CellTiter-Glo® Luminescent Cell Viability Assay reagent (Promega) was added to each well, followed by mixing for 5 min on an orbital plate shaker. Luminescence was measured on a Wallac EnVision 2104 Multilabel Reader (PerkinElmer) to quantitate ATP.

Question: For `CC(C)(C)OC(=O)N[C@H]1CC[C@H](CN2CCC3(CCN(c4ncncc4Oc4ccc(F)cc4OC4CCCC4)C3)C2)CC1` (some centres unmarked) [Example 147, tert-butyl ((1r,4r)-4-((7-(5-(2-(cyclopentyloxy)-4-fluorophenoxy)pyrimidin-4-yl)-2,7-diazaspiro[4.4]nonan-2-yl)methyl)cyclohexyl) carbamate], which IC50 [1] is on record?
Answer: < 100 nM

Question: And the EC50 [2]?
Answer: ≥ 1000 nM

Question: What does the source list for `CCn1c(=O)[nH]c2cc(CN3CCC4(CCN(c5ncncc5Oc5ccc(F)cc5C(=O)N(C)C(C)C)C4)C3)ccc21` (centres unmarked) [Example 128, 2-((4-(7-((1-ethyl-2-oxo-2,3-dihydro-1H-benzo[d]imidazol-5-yl)methyl)-2,7-diazaspiro[4.4]nonan-2-yl)pyrimidin-5-yl)oxy)-5-fluoro-N-isopropyl-N-methylbenzamide]?
Answer: IC50 [1]: < 100 nM; EC50 [2]: 100 to 1000 nM

Question: Which IC50 [1] does the source give for `CC(C)N(C(=O)c1cc(F)ccc1Oc1cncnc1N1CCC2(CCN(Cc3ccc4[nH]c(=O)[nH]c4c3)C2)C1)C1CC1` (centres unmarked) [Example 122, N-cyclopropyl-5-fluoro-N-isopropyl-2-((4-(7-((2-oxo-2,3-dihydro-1H-benzo[d]imidazol-5-yl)methyl)-2,7-diazaspiro[4.4]nonan-2-yl)pyrimidin-5-yl)oxy)benzamide] here?
Answer: < 100 nM

Question: And the EC50 [2]?
Answer: < 100 nM

Question: With `CC1(C)C(=O)Nc2cc(CN3CCC4(CCN(c5ncncc5Oc5ccc(F)cc5-c5ccc(C#N)cc5C5CC5)C4)C3)ccc21` (centres unmarked) [Example 205, 2-cyclopropyl-2′-((4-(7-((3,3-dimethyl-2-oxoindolin-6-yl)methyl)-2,7-diazaspiro[4.4]nonan-2-yl)pyrimidin-5-yl)oxy)-5′-fluoro-[1,1′-biphenyl]-4-carbonitrile] as the compound, how does the IC50 [1] read?
Answer: < 100 nM

Question: And the EC50 [2]?
Answer: < 100 nM

Question: Which results are given for `N#Cc1ccc(-c2cc(F)ccc2Oc2cncnc2N2CC3(CN(CC4CCOCC4)C3)C2)c(C2CC2)c1` [Example 215, 2-cyclopropyl-5′-fluoro-2′-((4-(6-((tetrahydro-2H-pyran-4-yl)methyl)-2,6-diazaspiro[3.3]heptan-2-yl)pyrimidin-5-yl)oxy)-[1,1′-biphenyl]-4-carbonitrile]?
Answer: IC50 [1]: < 100 nM; EC50 [2]: 100 to 1000 nM

Question: Which IC50 [1] does the source give for `CC(C)c1ncncc1-c1cc(F)ccc1Oc1cncnc1N1CC2(CC(NC3CCC(C)(C#N)CC3)C2)C1` (single isomer, unassigned) [Example 148A, 4-((2-(5-(4-fluoro-2-(4-isopropylpyrimidin-5-yl)phenoxy)pyrimidin-4-yl)-2-azaspiro[3.3]heptan-6-yl)amino)-1-methylcyclohexane carbonitrile] here?
Answer: < 100 nM

Question: What about the EC50 [2] of the same compound?
Answer: 100 to 1000 nM

Question: `O=c1[nH]c2ccc(CN3CCC4(CCN(c5ncncc5Oc5ccc(F)cc5Cc5ccccc5)C4)C3)cc2[nH]1` (centres unmarked) [Example 77] was tested. Which IC50 [1] did it give?
Answer: < 100 nM

Question: And the EC50 [2]?
Answer: ≥ 1000 nM

Question: Which IC50 [1] does the source give for `O=c1[nH]c2ccc(CN3CCC4(CCN(c5ncncc5Oc5ccc(F)cc5OCc5ccccc5)C4)C3)cc2[nH]1` (centres unmarked) [Example 208, 5-((7-(5-(2-(benzyloxy)-4-fluorophenoxy)pyrimidin-4-yl)-2,7-diazaspiro [4.4]nonan-2-yl)methyl)-1,3-dihydro-2H-benzo[d]imidazol-2-one] here?
Answer: < 100 nM

Question: And the EC50 [2]?
Answer: ≥ 1000 nM

Question: How did the IC50 [1] turn out when `CC(C)Oc1ncccc1-c1cc(F)ccc1Oc1cncnc1N1CC2(CN(CC3CCOCC3)C2)C1` [Example 162, 2-(5-(4-fluoro-2-(2-isopropoxypyridin-3-yl)phenoxy)pyrimidin-4-yl)-6-((tetrahydro-2H-pyran-4-yl)methyl)-2,6-diazaspiro[3.3]heptane] was run?
Answer: < 100 nM

Question: What about the EC50 [2] of the same compound?
Answer: 100 to 1000 nM

Question: Which IC50 [1] does the source give for `CC(C)N(C)C(=O)c1cc(F)ccc1Oc1cncnc1N1CCC2(CN(C(=O)Cc3ccc(C#N)cc3)C2)C1` [Example 127, 2-((4-(2-(2-(4-cyanophenyl)acetyl)-2,6-diazaspiro[3.4]octan-6-yl)pyrimidin-5-yl)oxy)-5-fluoro-N-isopropyl-N-methylbenzamide] here?
Answer: < 100 nM

Question: And the EC50 [2]?
Answer: 100 to 1000 nM

Question: How did the IC50 [1] turn out when `CC(C)N(C)C(=O)c1cc(F)ccc1Oc1cncnc1N1CCC2(CCN(Cc3ccc4[nH]c(=O)[nH]c4c3)C2)C1` (centres unmarked) [Example 183, 5-fluoro-N-isopropyl-N-methyl-2-((4-(7-((2-oxo-2,3-dihydro-1H-benzo[d]imidazol-5-yl)methyl)-2,7-diazaspiro[4.4]nonan-2-yl)pyrimidin-5-yl)oxy)benzamide] was run?
Answer: < 100 nM

Question: What about the EC50 [2] of the same compound?
Answer: < 100 nM

Question: How did the IC50 [1] turn out when `CC(C)c1ncncc1-c1cc(F)ccc1Oc1cncnc1N1CC2(CC(NCC3CCCCC3)CO2)C1` (centres unmarked) [Example 184, N-(cyclohexylmethyl)-2-(5-(4-fluoro-2-(4-isopropylpyrimidin-5-yl)phenoxy)pyrimidin-4-yl)-5-oxa-2-azaspiro[3.4]octan-7-amine] was run?
Answer: < 100 nM

Question: And the EC50 [2]?
Answer: 100 to 1000 nM

Question: Which results are given for `NC(=O)c1ccc2c(CN3CCC4(CCN(c5ncncc5Oc5ccc(F)cc5OCC5CC5)C4)C3)c[nH]c2c1` (centres unmarked) [Example 200, 3-((7-(5-(2-(cyclopropylmethoxy)-4-fluorophenoxy)pyrimidin-4-yl)-2,7-diazaspiro[4.4]nonan-2-yl)methyl)-1H-indole-6-carboxamide]?
Answer: IC50 [1]: < 100 nM; EC50 [2]: 100 to 1000 nM

Question: Which results are given for `CC(C)C(=O)N(C)c1cc(F)ccc1Oc1cncnc1N1CC2(CN(CC[C@H]3CC[C@H](NC(=O)OC(C)(C)C)CC3)C2)C1` [Example 138, tert-butyl ((1r,4r)-4-(2-(6-(5-(4-fluoro-2-(N-methyl-isobutyramido)phenoxy)pyrimidin-4-yl)-2,6-diazaspiro [3.3]heptan-2-yl)ethyl)cyclohexyl)carbamate]?
Answer: IC50 [1]: < 100 nM; EC50 [2]: < 100 nM

Question: How did the IC50 [1] turn out when `CC(=O)Nc1ccc(CN2CCC3(CCN(c4ncncc4Oc4ccc(F)cc4-c4ccc(C#N)cc4C4CC4)C3)C2)cc1Cl` (centres unmarked) [Example 172, N-(2-chloro-4-((7-(5-((4′-cyano-2′-cyclopropyl-5-fluoro-[1,1′-biphenyl]-2-yl)oxy)pyrimidin-4-yl)-2,7-diazaspiro[4.4]nonan-2-yl)methyl)phenyl) acetamide] was run?
Answer: < 100 nM

Question: What about the EC50 [2] of the same compound?
Answer: 100 to 1000 nM

Question: For `Fc1ccc(Oc2cncnc2N2CC3(CN(CC4CCOCC4)C3)C2)c(-c2cccnc2C2CC2)c1` [Example 177, 2-(5-(2-(2-cyclopropylpyridin-3-yl)-4-fluorophenoxy)pyrimidin-4-yl)-6-((tetrahydro-2H-pyran-4-yl)methyl)-2,6-diazaspiro[3.3] heptane], which IC50 [1] is on record?
Answer: < 100 nM

Question: What about the EC50 [2] of the same compound?
Answer: < 100 nM

Question: For `CC(C)c1ncncc1-c1cc(F)ccc1Oc1cncnc1N1CC2(CC(NCC3CCC(C)(C#N)CC3)C2)C1` (centres unmarked) [Example 140, 4-(((2-(5-(4-fluoro-2-(4-isopropylpyrimidin-5-yl)phenoxy)pyrimidin-4-yl)-2-azaspiro[3.3]heptan-6-yl)amino)methyl)-1-methylcyclohexane-1-carbonitrile], which IC50 [1] is on record?
Answer: < 100 nM

Question: What about the EC50 [2] of the same compound?
Answer: 100 to 1000 nM

Question: Which results are given for `CC(C)N(C)Cc1cc(F)ccc1Oc1cncnc1N1CCC2(CCN(Cc3ccc4[nH]c(=O)[nH]c4c3)C2)C1` (centres unmarked) [Example 135, 5-((7-(5-(4-fluoro-2-((isopropyl(methyl)amino)methyl)phenoxy)pyrimidin-4-yl)-2,7-diazaspiro[4.4]nonan-2-yl)methyl)-1,3-dihydro-2H-benzo[d]imidazol-2-one]?
Answer: IC50 [1]: < 100 nM; EC50 [2]: ≥ 1000 nM

Question: What does the source list for `CN(C)C(c1cc(F)ccc1Oc1cncnc1N1CCC2(CCN(Cc3ccc4[nH]c(=O)[nH]c4c3)C2)C1)C1CCCC1` (centres unmarked) [Example 8, 5-((7-(5-(2-(cyclopentyl(dimethylamino)methyl)-4-fluorophenoxy)pyrimidin-4-yl)-2,7-diazaspiro[4.4]nonan-2-yl)methyl)-1,3-dihydro-2H-benzo[d]imidazol-2-one]?
Answer: IC50 [1]: < 100 nM; EC50 [2]: < 100 nM
